Target: T1, soluble ectodomain of sortilin-6his (Homo sapiens, UniProt Q99523, V650M)
T1 construct: the soluble ectodomain of sortilin-6his is measured by microscale thermophoresis (MST)
Test: MST binding to soluble ectodomain of sortilin-6his
Conditions: Table 4; small molecule bifunctional compounds; MST; read-out: KD score, binding to sortilin (Kd)
Experimental: At this point the plate was sealed with adhesive strip and placed on an Eppendorf thermomixer to shake at 600 rpm for 3 min before spinning on a Fisherbrand plate-spinner for 15 seconds and further incubation 1 hrs at 19° C. MST was measured on a Monolith NT. Automated (Nanotemper) in standard-treated capillaries at 5% LED-power and high MST-power. Dose-response was extracted from the raw thermographs at 20 sec hot-time and the dissociation constant was estimated by sigmoidal curve fitting in MO. Affinity analysis program (Nanotemper). All experiments were run in duplicates.

T1 sequence (Q99523 with tags, fused parts or gaps V650M): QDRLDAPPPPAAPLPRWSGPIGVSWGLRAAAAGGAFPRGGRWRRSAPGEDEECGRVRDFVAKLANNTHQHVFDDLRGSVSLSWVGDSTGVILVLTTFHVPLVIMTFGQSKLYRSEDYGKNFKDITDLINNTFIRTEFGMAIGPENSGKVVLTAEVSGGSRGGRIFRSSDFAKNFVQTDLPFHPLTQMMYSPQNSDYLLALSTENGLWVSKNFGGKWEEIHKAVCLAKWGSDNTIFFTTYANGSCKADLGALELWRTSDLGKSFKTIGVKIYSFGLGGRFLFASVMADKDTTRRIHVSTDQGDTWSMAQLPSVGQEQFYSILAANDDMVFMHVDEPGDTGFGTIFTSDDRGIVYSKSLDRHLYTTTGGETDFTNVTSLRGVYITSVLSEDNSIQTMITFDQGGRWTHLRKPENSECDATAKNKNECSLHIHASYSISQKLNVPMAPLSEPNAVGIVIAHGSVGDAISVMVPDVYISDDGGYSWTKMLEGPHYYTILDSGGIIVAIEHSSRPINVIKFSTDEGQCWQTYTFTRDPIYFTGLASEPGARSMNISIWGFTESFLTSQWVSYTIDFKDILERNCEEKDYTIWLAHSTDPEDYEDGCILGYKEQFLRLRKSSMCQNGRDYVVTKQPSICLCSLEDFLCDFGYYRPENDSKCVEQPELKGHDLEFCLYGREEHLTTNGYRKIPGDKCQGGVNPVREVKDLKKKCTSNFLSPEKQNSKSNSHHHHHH

Kd [µM]	SMILES
0.001 to 0.01	C[C@@H]1CN(c2ncc(-c3ccc4c(n3)N(Cc3cccnc3C#N)C(C)(C)C4=O)cn2)CCN1C(=O)COCCOCCNC(=O)c1cccc(Oc2ccc(C(=O)N[C@@H](CCC(C)(C)C)C(=O)O)cn2)c1 [BF051, (2S)-2-[[6-[3-[2-[2-[2-[(2R)-4-[5-[1-[(2-cyano-3-pyridyl)methyl]-2,2-dimethyl-3-oxo-pyrrolo[2,3-b]pyridin-6-yl]pyrimidin-2-yl]-2-methyl-piperazin-1-yl]-2-oxo-ethoxy]ethoxy]ethylcarbamoyl]phenoxy]pyridine-3-carbonyl]amino]-5,5-dimethyl-hexanoic acid]
0.001 to 0.01	CC(C)(C)CC[C@H](NC(=O)c1ccc(Oc2cccc(C(=O)NCCOCCOCCOCCOCCOc3ncc(-c4ccc5c(n4)N(Cc4cccnc4C#N)C(C)(C)C5=O)cn3)c2)nc1)C(=O)O [BF052]
0.001 to 0.01	CC(C)(C)CC[C@H](NC(=O)c1ccc(Oc2cccc(C(=O)NCCOCCOc3ncc(-c4ccc5c(n4)N(Cc4cccnc4C#N)C(C)(C)C5=O)cn3)c2)nc1)C(=O)O [BF053]
0.001 to 0.01	CC(C)(C)CC[C@H](NC(=O)c1ccc(Oc2cccc(C(=O)NCCOCCOCCOCCOc3ncc(-c4ccc5c(n4)N(Cc4cccnc4C#N)C(C)(C)C5=O)cn3)c2)nc1)C(=O)O [BF054]
0.01 to 0.25	C[C@@H]1CN(c2ncc(-c3ccc4c(n3)N(Cc3cccnc3C#N)C(C)(C)C4=O)cn2)CCN1C(=O)COCCOCCOCCNC(=O)c1cccc(Oc2ccc(C(=O)N[C@@H](CCC(C)(C)C)C(=O)O)cn2)c1 [BF056, (2S)-2-[[6-[3-[2-[2-[2-[2-[(2R)-4-[5-[1-[(2-cyano-3-pyridyl)methyl]-2,2-dimethyl-3-oxo-pyrrolo[2,3-b]pyridin-6-yl]pyrimidin-2-yl]-2-methyl-piperazin-1-yl]-2-oxo-ethoxy]ethoxy]ethoxy]ethylcarbamoyl]phenoxy]pyridine-3-carbonyl]amino]-5,5-dimethyl-hexanoic acid]
0.001 to 0.01	C[C@@H]1CN(c2ncc(-c3ccc4c(n3)N(Cc3cccnc3C#N)C(C)(C)C4=O)cn2)CCN1C(=O)COCCNC(=O)c1cccc(Oc2ccc(C(=O)N[C@@H](CCC(C)(C)C)C(=O)O)cn2)c1 [BF058, (S)-2-(6-(3-((2-(2-((R)-4-(5-(1-((2-cyanopyridin-3-yl)methyl)-2,2-dimethyl-3-oxo-2,3-dihydro-1H-pyrrolo[2,3-b]pyridin-6-yl)pyrimidin-2-yl)-2-methylpiperazin-1-yl)-2-oxoethoxy)ethyl)carbamoyl)phenoxy)nicotinamido)-5,5-dimethyl hexanoic acid]

Continued, molecule first:

SMILES	Kd [µM]
CC(C)(C)CC[C@H](NC(=O)c1ccc(Oc2cccc(C(=O)NCCOCCOCCOCc3ccc(-c4cccc5ccncc45)c(OCCc4ccc(-c5cccc6ccncc56)cc4)c3)c2)nc1)C(=O)O [BF033, (2S)-2-[[6-[3-[2-[2-[2-[[4-(8-isoquinolyl)-3-[2-[4-(8-isoquinolyl)phenyl]ethoxy]phenyl]methoxy]ethoxy]ethoxy]ethylcarbamoyl]phenoxy]pyridine-3-carbonyl]amino]-5,5-dimethyl-hexanoic acid]	< 0.001
CC(C)(C)CC[C@H](NC(=O)c1ccc(Oc2cccc(C(=O)NCCOCCOCCOCCOCc3ccc(-c4cccc5ccncc45)c(OCCc4ccc(-c5cccc6ccncc56)cc4)c3)c2)nc1)C(=O)O [BF035, (2S)-2-[[6-[3-[2-[2-[2-[2-[[4-(8-isoquinolyl)-3-[2-[4-(8-isoquinolyl)phenyl]ethoxy]phenyl]methoxy]ethoxy]ethoxy]ethoxy]ethylcarbamoyl]phenoxy]pyridine-3-carbonyl]amino]-5,5-dimethyl-hexanoic acid]	0.001 to 0.01
C[C@@H]1CN(c2ncc(-c3ccc4c(n3)N(Cc3cccnc3C#N)C(C)(C)C4=O)cn2)CCN1C(=O)COCCCCCCNC(=O)COc1cccc(Oc2ccc(C(=O)N[C@@H](CCC(C)(C)C)C(=O)O)cn2)c1 [BF036]	0.001 to 0.01
CC(C)(C)CC[C@H](NC(=O)c1ccc(Oc2cccc(C(=O)NCCOCCOCCOCCOCCOCc3ccc(-c4cccc5ccncc45)c(OCCc4ccc(-c5cccc6ccncc56)cc4)c3)c2)nc1)C(=O)O [BF037, (2S)-2-[[6-[3-[2-[2-[2-[2-[2-[[4-(8-isoquinolyl)-3-[2-[4-(8-isoquinolyl)phenyl]ethoxy]phenyl]methoxy]ethoxy]ethoxy]ethoxy]ethoxy]ethylcarbamoyl]phenoxy]pyridine-3-carbonyl]amino]-5,5-dimethyl-hexanoic acid]	< 0.001
C[C@@H]1CN(c2ncc(-c3ccc4c(n3)N(Cc3cccnc3C#N)C(C)(C)C4=O)cn2)CCN1C(=O)COCCCCCCCCNc1cccc(Oc2ccc(C(=O)N[C@@H](CCC(C)(C)C)C(=O)O)cn2)c1 [BF038]	> 0.25
C[C@@H]1CN(c2ncc(-c3ccc4c(n3)N(Cc3cccnc3C#N)C(C)(C)C4=O)cn2)CCN1C(=O)COCCCCCCNc1cccc(Oc2ccc(C(=O)N[C@@H](CCC(C)(C)C)C(=O)O)cn2)c1 [BF039]	0.001 to 0.01
C[C@@H]1CN(c2ncc(-c3ccc4c(n3)N(Cc3cccnc3C#N)C(C)(C)C4=O)cn2)CCN1C(=O)COCCCCCCCCNC(=O)c1cccc(Oc2ccc(C(=O)N[C@@H](CCC(C)(C)C)C(=O)O)cn2)c1 [BF041]	< 0.001
CC(C)(C)CC[C@H](NC(=O)c1ccc(Oc2cccc(C(=O)NCCOCCOCCOCCOCCOCCOCc3ccc(-c4cccc5ccncc45)c(OCCc4ccc(-c5cccc6ccncc56)cc4)c3)c2)nc1)C(=O)O [BF044, (2S)-2-[[6-[3-[2-[2-[2-[2-[2-[2-[[4-(8-isoquinolyl)-3-[2-[4-(8-isoquinolyl)phenyl]ethoxy]phenyl]methoxy]ethoxy]ethoxy]ethoxy]ethoxy]ethoxy]ethylcarbamoyl]phenoxy]pyridine-3-carbonyl]amino]-5,5-dimethyl-hexanoic acid]	0.01 to 0.25
C[C@@H]1CN(c2ncc(-c3ccc4c(n3)N(Cc3cccnc3C#N)C(C)(C)C4=O)cn2)CCN1C(=O)COCCCCNC(=O)c1cccc(Oc2ccc(C(=O)N[C@@H](CCC(C)(C)C)C(=O)O)cn2)c1 [BF045]	0.001 to 0.01
C[C@@H]1CN(c2ncc(-c3ccc4c(n3)N(Cc3cccnc3C#N)C(C)(C)C4=O)cn2)CCN1C(=O)COCCCCNc1cccc(Oc2ccc(C(=O)N[C@@H](CCC(C)(C)C)C(=O)O)cn2)c1 [BF046]	< 0.001
C[C@@H]1CN(c2ncc(-c3ccc4c(n3)N(Cc3cccnc3C#N)C(C)(C)C4=O)cn2)CCN1C(=O)COCCNc1cccc(Oc2ccc(C(=O)N[C@@H](CCC(C)(C)C)C(=O)O)cn2)c1 [BF047, (S)-2-(6-(3-((2-(2-((R)-4-(5-(1-((2-cyanopyridin-3-yl)methyl)-2,2-dimethyl-3-oxo-2,3-dihydro-1H-pyrrolo[2,3-b]pyridin-6-yl)pyrimidin-2-yl)-2-methylpiperazin-1-yl)-2-oxoethoxy)ethyl)amino)phenoxy)nicotinamido)-5,5-dimethylhexanoic acid]	0.001 to 0.01
C[C@@H]1CN(c2ncc(-c3ccc4c(n3)N(Cc3cccnc3C#N)C(C)(C)C4=O)cn2)CCN1C(=O)COCCCCNC(=O)COc1cccc(Oc2ccc(C(=O)N[C@@H](CCC(C)(C)C)C(=O)O)cn2)c1 [BF048]	0.001 to 0.01
CC(C)(C)CC[C@H](NC(=O)c1ccc(Oc2cccc(C(=O)NCCOCCOCCNc3ncc(-c4ccc5c(n4)N(Cc4cccnc4C#N)C(C)(C)C5=O)cn3)c2)nc1)C(=O)O [BF049, (2S)-2-[[6-[3-[2-[2-[2-[[5-[1-[(2-cyano-3-pyridyl)methyl]-2,2-dimethyl-3-oxo-pyrrolo[2,3-b]pyridin-6-yl]pyrimidin-2-yl]amino]ethoxy]ethoxy]ethylcarbamoyl]phenoxy]pyridine-3-carbonyl]amino]-5,5-dimethyl-hexanoic acid]	0.001 to 0.01

Source: US20250345446A1 (Draupnir Bio ApS, priority 2022, published 2025)
